A word on the IC50: it is the midpoint of a concentration-inhibition curve.

The test system of this assay is IL-1β. Description: In vitro IL-1β inhibition in PMA-differentiated, LPS-primed, ATP-stimulated THP1 cells. It is filed as cell-based. Particulars: Homo sapiens, THP-1; THP1 monocytes differentiated with PMA, primed with 500 ng/ml LPS 4 h, compound 30 min, 5 mM ATP 1 hr; IL-1b in supernatant; read-out: invitro IL-1β inhibitory activity (IC50). The protocol:
THP1 monocytes were differentiated with PMA (100 ng/ml) and incubated at 37° C. for 20 hrs in presence of 5% CO2. 2×10^5 differentiated cells were plated per well of 96 well tissue culture plates. The cells were primed using 500 ng/ml Lipopolysaccharide and incubating for 4 h under the same condition. The cells were then treated with various concentrations of the compounds for 30 min followed by treatment with 5 mM ATP for 1 hr. The supernatants were collected and analyzed by IL-1b (Mabtech Cat #3415-1H-20) or TNF-a (Mabtech; Cat #3510-1H-20) detection kit. The data were analyzed using GraphPad Prism V7.0. Dose Response Curve (DRC) was constructed to determine the IC50 value by fitting percentage cell survival data to the GraphPad Prism using nonlinear regression analysis.

As for `CC(C)NC/C=C/S(=O)(=O)NC(=O)Nc1c2c(cc3c1CCC3)CCC2` [Example 1, (E)-N-((1,2,3,5,6,7-hexahydro-s-indacen-4-yl)carbamoyl)-3-(isopropylamino)prop-1-ene-1-sulfonamide], the concentration for half-maximal inhibition (IC50) is 43 nM.

As to `CC(C)N(C)C/C=C/S(=O)(=O)NC(=O)Nc1c2c(cc3c1CCC3)CCC2` [Example 5, (E)-N-((1,2,3,5,6,7-hexahydro-s-indacen-4-yl)carbamoyl)-3-(isopropyl(methyl)amino)prop-1-ene-1-sulfonamide], the IC50 stood at 20 nM.

For the molecule `CN(C)C(C)(C)/C=C/S(=O)(=O)NC(=O)Nc1c2c(cc3c1CCC3)CCC2` [Example 6, (E)-3-(dimethylamino)-N-((1,2,3,5,6,7-hexahydro-s-indacen-4-yl)carbamoyl)-3-methylbut-1-ene-1-sulfonamide], the IC50 came to 5.6 nM.

Consider `O=C(Nc1c2c(cc3c1CCC3)CCC2)NS(=O)(=O)/C=C/CN1CCCC1` [Example 18, (E)-N-((1,2,3,5,6,7-hexahydro-s-indacen-4-yl)carbamoyl)-3-(pyrrolidin-1-yl)prop-1-ene-1-sulfonamide], for which the IC50 amounted to 6.6 nM.

Turning to `CCN(C)C(C)(C)/C=C/S(=O)(=O)NC(=O)Nc1c2c(cc3c1CCC3)CCC2` [Example 20, (E)-3-(ethyl(methyl)amino)-N-((1,2,3,5,6,7-hexahydro-s-indacen-4-yl)carbamoyl)-3-methylbut-1-ene-1-sulfonamide], the half-maximal inhibitory concentration (IC50) worked out at 9.9 nM.

Turning to `CN(C1CCC1)C(C)(C)/C=C/S(=O)(=O)NC(=O)Nc1c2c(cc3c1CCC3)CCC2` [Example 21, (E)-3-(cyclobutyl(methyl)amino)-N-((1,2,3,5,6,7-hexahydro-s-indacen-4-yl)carbamoyl)-3-methylbut-1-ene-1-sulfonamide], the IC50 was determined as 6 nM.

On to `CC(C)N(C)C(C)(C)/C=C/S(=O)(=O)NC(=O)Nc1c2c(cc3c1CCC3)CCC2` [Example 24, (E)-N-((1,2,3,5,6,7-hexahydro-s-indacen-4-yl)carbamoyl)-3-(isopropyl(methyl)amino)-3-methylbut-1-ene-1-sulfonamide], for which the IC50 worked out at 7.5 nM.

On to `CC(C)CN(C)C(C)(C)/C=C/S(=O)(=O)NC(=O)Nc1c2c(cc3c1CCC3)CCC2` [Example 35, (E)-N-((1,2,3,5,6,7-hexahydro-s-indacen-4-yl)carbamoyl)-3-(isobutyl(methyl)amino)-3-methylbut-1-ene-1-sulfonamide], for which the concentration for half-maximal inhibition (IC50) turned out to be 11 nM.

Consider `CN(C)C/C=C/S(=O)(=O)NC(=O)Nc1c2c(cc3c1CCC3)CC=C2` [Example 36, (E)-3-(dimethylamino)-N-((1,2,3,7-tetrahydro-s-indacen-4-yl)carbamoyl)prop-1-ene-1-sulfonamide], for which the 50% inhibitory concentration (IC50) turned out to be 9.6 nM.

Consider `CC(C)(/C=C/S(=O)(=O)NC(=O)Nc1c2c(cc3c1CCC3)CCC2)N1CCCC1` [Example 42, (E)-N-((1,2,3,5,6,7-hexahydro-s-indacen-4-yl)carbamoyl)-3-methyl-3-(pyrrolidin-1-yl)but-1-ene-1-sulfonamide], for which the concentration for half-maximal inhibition (IC50) turned out to be 12.6 nM.

Consider `CC(C)(/C=C/S(=O)(=NC#N)NC(=O)Nc1c2c(cc3c1CCC3)CCC2)NC(=O)OC(C)(C)C` (stereo not drawn) [Example 47, tert-butyl (E)-(4-(N′-cyano-N-((1,2,3,5,6,7-hexahydro-s-indacen-4-yl)carbamoyl)sulfamidimidoyl)-2-methylbut-3-en-2-yl)carbamate], for which the IC50 was found to be 3.8 nM.

For `CN(C)C(C)(C)/C=C/S(=O)(=NC#N)NC(=O)Nc1c2c(cc3c1CCC3)CCC2` (stereo not drawn) [Example 49, (E)-N′-cyano-3-(dimethylamino)-N-((1,2,3,5,6,7-hexahydro-s-indacen-4-yl)carbamoyl)-3-methylbut-1-ene-1-sulfonimidamide], the IC50 came to 6.5 nM.

These data come from patent US12599616B2, “Subtituted sulfonylurea and sulfoximineurea derivatives” (Zydus Lifesciences Limited, priority 2020, dated 2026).
